Four compounds from ChEMBL document CHEMBL1142650, “Novel transient receptor potential vanilloid 1 receptor antagonists for the treatment of pain: structure-activity relationships for ureas with quinoline, isoquinoline, quinazoline, phthalazine, quinoxaline, and cinnoline moieties” (J Med Chem, 2005) can be followed below.

A short description of data set [1]: Volume of distribution in rat. The format is ADME, organism-based. The settings on record: in vivo, read-out: Vbeta.
For data set [2], the target named is Transient receptor potential cation channel subfamily V member 1 (Rattus norvegicus, UniProt O35433). The data set is described as follows: Inhibition of binding to rat transient receptor potential vanilloid 1 receptor.
Chain of Transient receptor potential cation channel subfamily V member 1 (Rattus norvegicus, UniProt O35433) (O35433 whole entry): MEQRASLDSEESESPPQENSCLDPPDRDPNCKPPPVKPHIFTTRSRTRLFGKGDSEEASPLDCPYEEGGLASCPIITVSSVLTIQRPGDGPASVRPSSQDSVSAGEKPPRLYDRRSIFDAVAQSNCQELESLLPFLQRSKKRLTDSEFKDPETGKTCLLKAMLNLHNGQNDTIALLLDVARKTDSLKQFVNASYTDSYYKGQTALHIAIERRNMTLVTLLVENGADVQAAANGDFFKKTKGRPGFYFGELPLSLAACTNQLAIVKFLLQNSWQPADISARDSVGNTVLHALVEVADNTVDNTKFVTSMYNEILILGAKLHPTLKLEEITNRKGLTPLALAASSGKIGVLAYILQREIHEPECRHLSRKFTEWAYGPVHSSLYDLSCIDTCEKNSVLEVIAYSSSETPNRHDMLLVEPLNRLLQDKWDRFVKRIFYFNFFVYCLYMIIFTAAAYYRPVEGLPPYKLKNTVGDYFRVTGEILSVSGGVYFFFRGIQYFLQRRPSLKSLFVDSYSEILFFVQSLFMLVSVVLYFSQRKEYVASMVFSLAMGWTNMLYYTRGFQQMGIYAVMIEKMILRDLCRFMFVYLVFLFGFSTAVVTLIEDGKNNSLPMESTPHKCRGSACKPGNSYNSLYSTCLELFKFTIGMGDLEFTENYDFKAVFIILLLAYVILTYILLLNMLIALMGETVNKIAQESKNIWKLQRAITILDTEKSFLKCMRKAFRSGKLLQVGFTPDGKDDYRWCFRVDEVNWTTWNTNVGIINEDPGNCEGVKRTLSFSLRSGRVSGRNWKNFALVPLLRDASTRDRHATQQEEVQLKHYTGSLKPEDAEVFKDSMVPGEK
In data set [3] the target is Transient receptor potential cation channel subfamily V member 1 (Homo sapiens, UniProt Q8NER1). Nature of the data set: Inhibition of binding to human vanilloid receptor subtype VR1.
Chain of Transient receptor potential cation channel subfamily V member 1 (Homo sapiens, UniProt Q8NER1) (Q8NER1 whole entry): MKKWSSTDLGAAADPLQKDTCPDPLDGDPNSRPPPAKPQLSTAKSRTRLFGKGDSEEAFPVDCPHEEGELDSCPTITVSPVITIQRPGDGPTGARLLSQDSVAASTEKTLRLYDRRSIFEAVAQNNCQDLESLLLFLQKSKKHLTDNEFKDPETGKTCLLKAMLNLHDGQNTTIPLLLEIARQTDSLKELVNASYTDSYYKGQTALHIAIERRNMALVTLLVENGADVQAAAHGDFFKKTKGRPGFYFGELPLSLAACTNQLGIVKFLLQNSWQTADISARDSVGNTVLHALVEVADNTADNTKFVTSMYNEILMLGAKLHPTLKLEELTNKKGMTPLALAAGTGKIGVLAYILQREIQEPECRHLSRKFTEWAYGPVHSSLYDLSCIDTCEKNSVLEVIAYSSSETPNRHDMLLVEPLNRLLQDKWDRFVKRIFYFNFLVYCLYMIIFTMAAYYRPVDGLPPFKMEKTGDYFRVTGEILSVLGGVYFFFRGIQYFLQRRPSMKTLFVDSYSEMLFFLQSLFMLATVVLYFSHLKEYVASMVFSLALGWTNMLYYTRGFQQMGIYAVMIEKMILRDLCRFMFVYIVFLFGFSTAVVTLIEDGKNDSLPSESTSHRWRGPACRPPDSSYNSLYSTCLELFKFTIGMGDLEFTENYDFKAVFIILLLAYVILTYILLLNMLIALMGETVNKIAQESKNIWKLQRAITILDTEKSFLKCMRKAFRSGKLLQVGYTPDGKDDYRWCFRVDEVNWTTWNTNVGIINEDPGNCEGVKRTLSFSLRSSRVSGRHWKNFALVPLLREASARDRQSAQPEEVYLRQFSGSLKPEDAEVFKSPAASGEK
The species entered for a further data set is Rattus norvegicus. Nature of the data set: Concentration required to reduce thermal hyperalgesia in the complete Freund's adjuvant (CFA) model of chronic inflammatory pain. The format is functional.
The nature of data set [4]: Plasma protein binding in rat. The format is ADME, cell-free. As to conditions: read-out: Plasma protein binding (converted).
A short description of data set [5]: Plasma protein binding in human. Type of data set: ADME, cell-free. As to conditions: read-out: Plasma protein binding (converted).
Data set [6] in a line: Maximum concentration in rat. Type of data set: ADME, organism-based. The settings on record: in vivo.
The nature of data set [7]: Half life in rat. The format is ADME. The settings on record: in vivo.

As for `O=C(NCc1ccc(C(F)(F)F)cc1)Nc1cccc2cnccc12`, the Vd in data set [1] was 0.6 L/kg. In addition, the IC50 in data set [2] worked out at 0.024 µM; in data set [3] it was 0.004 µM. For the same compound, the ED50 in the data set listed under Rattus norvegicus was 30 µmol/kg. The fraction unbound is 0.029 in data set [4] and 0.02 in data set [5]. Moreover, the Cmax in data set [6] amounted to 3000 ng/mL. In data set [7], the half-life is 36 min.
Turning to `O=C(NCCc1cccc(C(F)(F)F)c1)Nc1cccc2cnccc12`, in data set [3], the IC50 stood at 0.02 µM.
Regarding `O=C(NCc1cccc(C(F)(F)F)c1)Nc1cccc2cnccc12`, the IC50 in data set [3] came to 0.051 µM.
Same read-out and setting: then `CSc1cccc(NC(=O)Nc2cccc3ccc(O)cc23)c1`, with 0.022 µM.
